This note sets out measurements from patent publication US11254686B1 (Corvus Pharmaceuticals, Inc., priority 2017, dated 2022).

What all share (assay type): biochemical
Test [1] addresses adenosine A2B receptor (Homo sapiens (Human), UniProt P29275). In words: Adenosine receptor activity assay (Table 1), A2B activity. The settings on record: for Ratio: A2A activity to the A2B activity, A2A/A2B; for IC50: read-out: Ave A2B cAMP IC50.
Test [2] deals with adenosine A2A receptor (Homo sapiens (Human), UniProt P29274). Put plainly: Adenosine receptor activity assay (Table 1), A2A activity. As to conditions: read-out: Ave A2A cAMP IC50.
Test [3] has as its target adenosine A1 receptor (Homo sapiens (Human), UniProt P30542). Put plainly: Adenosine receptor activity assay (Table 1), A1 cAMP. The method, then: (§1) Table 1. Compounds (e.g., Adenosine Receptor modulators) and activity assay results. The legend is as follows: A=<10 nM; B=10-50 nM; C=50-100 nM; D=100-500; and E=>500 nM. The ratio corresponds to the A2A activity to the A2B activity; or A2A/A2B.

The target in test [4] is adenosine A3 receptor (Homo sapiens (Human), UniProt P0DMS8). In words: Adenosine receptor activity assay (Table 1), A3 cAMP. How it is done:
as §1

Chain of adenosine A1 receptor (P30542 whole entry): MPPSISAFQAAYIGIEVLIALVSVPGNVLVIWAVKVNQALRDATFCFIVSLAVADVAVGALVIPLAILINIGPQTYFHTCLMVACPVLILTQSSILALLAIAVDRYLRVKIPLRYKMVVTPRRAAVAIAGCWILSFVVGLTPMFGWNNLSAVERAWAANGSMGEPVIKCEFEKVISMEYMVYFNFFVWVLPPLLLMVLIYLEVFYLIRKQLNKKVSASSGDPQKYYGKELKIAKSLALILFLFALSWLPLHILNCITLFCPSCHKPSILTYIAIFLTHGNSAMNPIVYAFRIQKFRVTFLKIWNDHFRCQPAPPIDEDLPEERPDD
Chain of adenosine A2A receptor (P29274 whole entry): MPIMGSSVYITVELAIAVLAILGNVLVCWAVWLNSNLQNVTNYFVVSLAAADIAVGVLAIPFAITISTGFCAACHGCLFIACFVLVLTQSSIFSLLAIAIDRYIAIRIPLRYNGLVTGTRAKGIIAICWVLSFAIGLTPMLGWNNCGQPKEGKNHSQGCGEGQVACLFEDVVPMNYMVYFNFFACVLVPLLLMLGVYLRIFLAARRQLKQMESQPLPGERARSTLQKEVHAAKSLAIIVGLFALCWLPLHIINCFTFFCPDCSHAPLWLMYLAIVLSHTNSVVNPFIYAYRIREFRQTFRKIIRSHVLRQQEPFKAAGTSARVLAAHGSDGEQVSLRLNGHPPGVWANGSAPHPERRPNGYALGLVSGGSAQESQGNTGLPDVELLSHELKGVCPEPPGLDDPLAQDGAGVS
Chain of adenosine A2B receptor (P29275 whole entry): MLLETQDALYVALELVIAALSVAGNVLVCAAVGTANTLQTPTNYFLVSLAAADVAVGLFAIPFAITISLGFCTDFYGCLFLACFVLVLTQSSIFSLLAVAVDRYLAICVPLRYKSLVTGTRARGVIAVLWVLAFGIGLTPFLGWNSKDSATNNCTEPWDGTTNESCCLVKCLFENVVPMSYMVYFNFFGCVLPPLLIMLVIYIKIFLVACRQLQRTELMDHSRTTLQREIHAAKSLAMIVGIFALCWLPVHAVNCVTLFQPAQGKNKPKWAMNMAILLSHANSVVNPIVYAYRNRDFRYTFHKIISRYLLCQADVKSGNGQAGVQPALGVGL
Chain of adenosine A3 receptor (P0DMS8 whole entry): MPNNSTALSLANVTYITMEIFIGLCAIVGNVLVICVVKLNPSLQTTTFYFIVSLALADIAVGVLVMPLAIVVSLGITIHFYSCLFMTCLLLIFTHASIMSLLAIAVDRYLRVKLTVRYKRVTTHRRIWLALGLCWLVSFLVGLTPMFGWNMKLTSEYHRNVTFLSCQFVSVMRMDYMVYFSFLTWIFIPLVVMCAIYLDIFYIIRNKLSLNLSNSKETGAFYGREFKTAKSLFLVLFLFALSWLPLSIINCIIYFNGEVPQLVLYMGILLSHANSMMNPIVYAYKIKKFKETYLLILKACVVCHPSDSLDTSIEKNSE

On to `Cc1cc2nc(N[C@@H](C)c3cncc(F)c3)nc(C(=O)N3CC[C@H](NC(=O)OCc4ccccc4)C3)c2s1` [Example Z473, Benzyl ((S)-1-(2-(((S)-1-(5-fluoropyridin-3-yl)ethyl)amino)-6-methylthieno[3,2-d]pyrimidine-4-carbonyl)pyrrolidin-3-yl)carbamate], for which, in test [1], the Ratio amounted to 20.60. Further, the half-maximal inhibitory concentration (IC50) is 10 to 50 nM in test [1], more than 500 nM in test [2], more than 500 nM in test [3] and more than 500 nM in test [4].
Consider `Cc1cc2nc(N[C@@H](C)c3cncc(F)c3)nc(C(=O)N3CC(CNC(=O)OC(C)(C)C)C3)c2s1` [Example Z475, tert-Butyl (S)-((1-(2-((1-(5-fluoropyridin-3-yl)ethyl)amino)-6-methylthieno[3,2-d]pyrimidine-4-carbonyl)azetidin-3-yl)methyl)carbamate], for which the Ratio in test [1] is recorded as 7.45. Further, the 50% inhibitory concentration (IC50) was 10 to 50 nM in test [1], 100 to 500 nM in test [2], more than 500 nM in test [3] and more than 500 nM in test [4].
As for `Cc1cc2nc(N[C@@H](C)c3ccccn3)nc(C(=O)N3CC(CNC(=O)OC(C)(C)C)C3)c2s1` [Example Z476, tert-Butyl (S)-((1-(6-methyl-2-((1-(pyridin-2-yl)ethyl)amino)thieno[3,2-d]pyrimidine-4-carbonyl)azetidin-3-yl)methyl)carbamate], the Ratio in test [1] came to 5.27. For the same compound, the IC50 was 10 to 50 nM in test [1], 100 to 500 nM in test [2], more than 500 nM in test [3] and more than 500 nM in test [4].
Regarding `COc1ccc(CNC(=O)c2nc(N[C@@H](C)c3ccccn3)nc3cc(C)sc23)cc1` [Example Z477, (S)—N-(4-Methoxybenzyl)-6-methyl-2-((1-(pyridin-2-yl)ethyl)amino)thieno[3,2-d]pyrimidine-4-carboxamide], in test [1], the Ratio is listed as 9.73. Besides, the IC50 in test [1] was in the range of 10 to 50 nM; in test [2], 100 to 500 nM; in test [3] it was 50 to 100 nM; in test [4], 50 to 100 nM.
Regarding `Cc1cc2nc(N[C@@H](C)c3cncc(F)c3)nc(C(=O)N3CC(CN)C3)c2s1` [Example Z478, (S)-(3-(Aminomethyl)azetidin-1-yl)(2-((1-(5-fluoropyridin-3-yl)ethyl)amino)-6-methylthieno[3,2-d]pyrimidin-4-yl)methanone], the Ratio in test [1] is given as 167.42. The IC50 was 10 to 50 nM in test [1], more than 500 nM in test [2], more than 500 nM in test [3] and more than 500 nM in test [4].
For `Cc1cc2nc(N[C@@H](C)c3ccccn3)nc(C(=O)N3CC(CN)C3)c2s1` [Example Z479, (S)-(3-(Aminomethyl)azetidin-1-yl)(6-methyl-2-((1-(pyridin-2-yl)ethyl)amino)thieno[3,2-d]pyrimidin-4-yl)methanone], the Ratio in test [1] was 96.36. Moreover, the half-inhibitory concentration (IC50) is 10 to 50 nM in test [1], more than 500 nM in test [2], more than 500 nM in test [3] and more than 500 nM in test [4].
Consider `Cc1cc2nc(N[C@@H](C)c3ccccn3)nc(C(N)=O)c2s1` [Example Z480, (S)-6-Methyl-2-((1-(pyridin-2-yl)ethyl)amino)thieno[3,2-d]pyrimidine-4-carboxamide], for which the Ratio in test [1] was determined as 47.68. Further, the IC50 in test [1] is 10 to 50 nM; in test [2], more than 500 nM; in test [3], more than 500 nM; in test [4], more than 500 nM.
Regarding `Cc1cc2nc(N[C@@H](C)c3cncc(F)c3)nc(C(=O)N3CC(N(C)C)C3)c2s1` [Example Z481, (S)-(3-(Dimethylamino)azetidin-1-yl)(2-((1-(5-fluoropyridin-3-yl)ethyl)amino)-6-methylthieno[3,2-d]pyrimidin-4-yl)methanone], the Ratio in test [1] worked out at 111.93. Also, the half-maximal inhibitory concentration (IC50) in test [1] was 10 to 50 nM; in test [2], more than 500 nM; in test [3], more than 500 nM; in test [4], more than 500 nM.
For the compound `COC1(C)CN(C(=O)c2nc(N[C@@H](C)c3ccccn3)nc3cc(C)sc23)C1` [Example Z483, (S)-(3-Methoxy-3-methylazetidin-1-yl)(6-methyl-2-((1-(pyridin-2-yl)ethyl)amino)thieno[3,2-d]pyrimidin-4-yl)methanone], the Ratio in test [1] was 30.60. For the same compound, the IC50 in test [1] was 10 to 50 nM; in test [2] it was 100 to 500 nM; in test [3] it was more than 500 nM; in test [4] it was more than 500 nM.
For the compound `Cc1cc2nc(N[C@@H](C)c3cncc(F)c3)nc(C(=O)NCCC3CN(C(=O)OC(C)(C)C)C3)c2s1` [Example Z485, tert-Butyl (S)-3-(2-(2-((1-(5-fluoropyridin-3-yl)ethyl)amino)-6-methylthieno[3,2-d]pyrimidine-4-carboxamido)ethyl)azetidine-1-carboxylate], the Ratio in test [1] amounted to 8.16. Further, the IC50 is 10 to 50 nM in test [1], 100 to 500 nM in test [2], 100 to 500 nM in test [3] and more than 500 nM in test [4].
For the compound `CC(=O)Nc1ccc(CCNC(=O)c2nc(N[C@@H](C)c3cncc(F)c3)nc3cc(C)sc23)cc1` [Example Z488, (S)—N-(4-Acetamidophenethyl)-2-((1-(5-fluoropyridin-3-yl)ethyl)amino)-6-methylthieno[3,2-d]pyrimidine-4-carboxamide], in test [1], the Ratio is 147.08. Also, the half-maximal inhibitory concentration (IC50) in test [1] is less than 10 nM; in test [2], more than 500 nM; in test [3] it was more than 500 nM; in test [4], more than 500 nM.
Consider `Cc1cc2nc(N[C@@H](C)c3cncc(F)c3)nc(C(=O)NCC[C@@H]3CCNC3)c2s1` [Example Z489, 2-(((S)-1-(5-Fluoropyridin-3-yl)ethyl)amino)-6-methyl-N-(2-((S)-pyrrolidin-3-yl)ethyl)thieno[3,2-d]pyrimidine-4-carboxamide], for which the Ratio in test [1] is listed as 365.84. For the same compound, the IC50 in test [1] was 10 to 50 nM; in test [2], more than 500 nM; in test [3] it was more than 500 nM; in test [4], more than 500 nM.
For `Cc1cc2nc(N[C@@H](C)c3cncc(F)c3)nc(C(=O)N3CC(CNC(=O)C(C)(C)C)C3)c2s1` [Example Z490, (S)—N-((1-(2-((1-(5-Fluoropyridin-3-yl)ethyl)amino)-6-methylthieno[3,2-d]pyrimidine-4-carbonyl)azetidin-3-yl)methyl)pivalamide], the Ratio in test [1] is 10.96. In addition, the IC50 in test [1] was 10 to 50 nM; in test [2], 100 to 500 nM; in test [3], more than 500 nM; in test [4], more than 500 nM.
As for `Cc1cc2nc(N[C@@H](C)c3cncc(F)c3)nc(C(=O)N3CC[C@@H](NC(=O)OCc4ccccc4)C3)c2s1` [Example Z491, Benzyl ((R)-1-(2-(((S)-1-(5-fluoropyridin-3-yl)ethyl)amino)-6-methylthieno[3,2-d]pyrimidine-4-carbonyl)pyrrolidin-3-yl)carbamate], the Ratio in test [1] came to 86.94. The IC50 in test [1] is 10 to 50 nM; in test [2] it was more than 500 nM; in test [3], more than 500 nM; in test [4], more than 500 nM.
Regarding `Cc1cc2nc(N[C@@H](C)c3ccccn3)nc(C(=O)NCc3nccs3)c2s1` [Example Z492, (S)-6-Methyl-2-((1-(pyridin-2-yl)ethyl)amino)-N-(thiazol-2-ylmethyl)thieno[3,2-d]pyrimidine-4-carboxamide], the Ratio in test [1] is 8.25. For the same compound, the IC50 in test [1] is 10 to 50 nM; in test [2], 100 to 500 nM; in test [3] it was more than 500 nM; in test [4] it was 10 to 50 nM.
Regarding `Cc1cc2nc(N[C@@H](C)c3cncc(F)c3)nc(C(=O)N3CC(CO)C3)c2s1` [Example Z494, (S)-(2-((1-(5-Fluoropyridin-3-yl)ethyl)amino)-6-methylthieno[3,2-d]pyrimidin-4-yl)(3-(hydroxymethyl)azetidin-1-yl)methanone], in test [1], the Ratio is recorded as 146.92. Also, the IC50 is less than 10 nM in test [1], 100 to 500 nM in test [2], more than 500 nM in test [3] and more than 500 nM in test [4].
With `CCNC(=O)CC1CN(C(=O)c2nc(N[C@@H](C)c3cncc(F)c3)nc3cc(C)sc23)C1` [Example Z495, (S)—N-Ethyl-2-(1-(2-((1-(5-fluoropyridin-3-yl)ethyl)amino)-6-methylthieno[3,2-d]pyrimidine-4-carbonyl)azetidin-3-yl)acetamide], the Ratio in test [1] is reported as 23.37. In addition, the IC50 was less than 10 nM in test [1], 50 to 100 nM in test [2], more than 500 nM in test [3] and 50 to 100 nM in test [4].
Consider `Cc1cc2nc(N[C@@H](C)c3cncc(F)c3)nc(C(=O)NCCC3CCNCC3)c2s1` [Example Z496, (S)-2-((1-(5-Fluoropyridin-3-yl)ethyl)amino)-6-methyl-N-(2-(piperidin-4-yl)ethyl)thieno[3,2-d]pyrimidine-4-carboxamide], for which the Ratio in test [1] was 524.78. In addition, the IC50 in test [1] was 10 to 50 nM; in test [2], more than 500 nM; in test [3], more than 500 nM; in test [4] it was more than 500 nM.
On to `Cc1cc2nc(N[C@@H](C)c3cncc(F)c3)nc(C(=O)N3CC(C(N)=O)C3)c2s1` [Example Z504, (S)-1-(2-((1-(5-Fluoropyridin-3-yl)ethyl)amino)-6-methylthieno[3,2-d]pyrimidine-4-carbonyl)azetidine-3-carboxamide], for which the Ratio in test [1] is 287.41. Also, the IC50 in test [1] was less than 10 nM; in test [2], more than 500 nM; in test [3], more than 500 nM; in test [4], more than 500 nM.

The term IC50 denotes the concentration that inhibits the measured activity by half.
